Experiments:
[1] = human, in vivo, 1 year
Procedure: Additional laboratory tests: Additional laboratory tests were performed and included: • A urine pregnancy test was administered to women of childbearing potential at certain visits as listed in schedule of procedures (Table 1). The urine pregnancy tests were performed at the Research Site utilizing marketed test kits, or at a certified clinical laboratory; • A fasting blood sample (10 mL) for archiving. This sample was collected only at sites in countries where allowed by local regulations and at sites for which approved by the IRB or IEC. The plasma from the archiving sample was stored frozen in 2 separate equal aliquots, and was used at the Sponsor's discretion to perform repeat analyses described in the protocol or to perform other tests related to cardiovascular health; and • Potential non-genetic bioassays were performed, including but not limited to: Apo A1, Apo C3, Apo E, NMR lipid profile (particle size and number), oxidized LDL, Lp(a), Lp-PLA2, serum fatty-acids concentrations, and gamma-glutamyltransferase (GGT).
In addition, the following were analyzed as tertiary endpoints for the ITT population: • Relationship between on-treatment hs-CRP and the primary and key secondary endpoints; and • Relationship between on-treatment serum eicosapentaenoic acid (EPA) and the primary and key secondary endpoints. […]

[2] = system: statin-treated patients with established atherosclerosis or diabetes and elevated triglycerides; assay: REDUCE-IT: total (first and recurrent) ischemic events analysis; format: in vivo, human
From the text: The following study was a multi-center, placebo-controlled clinical trial the details of which are described above in Example 1, the REDUCE-IT design. […] Randomization was stratified by cardiovascular risk cohort (i.e., secondary or primary prevention), use of ezetimibe, and by geographic region.
The primary outcome for the study was total recurrent events consisting of the composite of cardiovascular death, nonfatal myocardial infarction, nonfatal stroke, coronary revascularization, or hospitalization for unstable angina. Recurrent event analyses were also performed for the key secondary endpoint, a composite of cardiovascular death, nonfatal myocardial infarction, or nonfatal stroke. For each of these composite endpoints, the effects of icosapent ethyl in the secondary and primary prevention strata were examined separately.
Demographic and baseline disease characteristics are presented using frequencies and percentages for categorical variables and medians with interquartile ranges for continuous variables. Between treatment group comparisons were derived using the chi-square test for categorical variables and Wilcoxon rank test for continuous variables. All clinical endpoint events used in the efficacy analyses were adjudicated by an independent Clinical Endpoint Committee (CEC) who were blinded to the treatment assignment. Since the primary efficacy endpoint was the time from randomization to the first occurrence of any component of the composite endpoint, and recurrence of such events within each patient is possible, a pre-specified analysis using a Cox proportional-hazard with the counting-process formulation of Andersen and Gill was performed to model the first and all recurrent cardiovascular events. HRs and corresponding 95% CIs are reported from this model. In addition, as a marginal model and an extension of survival models based on the Cox proportional hazard model, the modified Wei-Lin-Weissfeld (WLW) method for analysis of recurrent events in the presence of deaths was carried out as a supportive analysis. In addition, as pre-specified, a recurrent event analysis using the Andersen-Gill and Wei-Lin-Weissfeld methods was carried out for the individual primary event components other than CV death. Though not pre-specified, additional recurrent event analyses were performed for the key secondary endpoint, which is a composite of CV death, nonfatal MI, or nonfatal stroke, and for the primary endpoint and the key secondary endpoint in the primary and secondary prevention strata to explore further the consistency of clinical benefit of icosapent ethyl. In subgroup analyses of the two cardiovascular risk strata (i.e., primary and secondary prevention), site-level discrepancies in cardiovascular risk group assignment occurring at entry and detected during the study (1.8%) were adjusted to conform with documented medical history data prior to randomization. All efficacy analyses were performed according to the intention-to-treat principle. All tests were based on a 2-sided nominal significance level of 5% with no adjustments for multiple comparisons.

[3] = system: symptomatic COVID-19 outpatients with positive SARS-CoV-2 test; assay: VASCEPA-COVID-19: adverse events; format: in vivo, human
From the text: Safety monitoring was undertaken at each study visit in accordance with Health Canada regulations and local reporting guidelines. All serious, unexpected adverse drug reactions (ADRs) were reported to Health Canada in accordance with Division 5 of Part C of the Food and Drug Regulations.
An adverse event (AE) is defined as any untoward medical occurrence, including an exacerbation of a pre-existing condition, in a patient in a clinical investigation who received a pharmaceutical product.
The intensity of the AE should be judged based on the following: • a) Mild: Awareness of sign(s) or symptom(s) that is/are easily tolerated; • b) Moderate: Sufficient discomfort to cause interference with usual activity; or • c) Severe: Incapacitating or causing inability to work or to perform usual activities.

[4] = n = 50, intention-to-treat, usual care 0
[5] = n = 50, intention-to-treat, usual care 6

CC/C=C\C/C=C\C/C=C\C/C=C\C/C=C\CCCC(=O)OCC [icosapent ethyl, eicosapentaenoic acid ethyl ester]
EPA between group difference, median % change from baseline [1]: 358.8% | EPA between group difference, median absolute change from baseline [1]: 114.9 µg/mL | Total primary endpoint events: HR vs placebo ([2]; overall trial): 0.68 | Total primary endpoint events prevented ([2]; per 100 patients treated for five years): approximately 16 | Total key secondary endpoint: HR ([2]; primary prevention stratum, vs placebo): 0.71 | Total key secondary endpoint: HR ([2]; secondary prevention stratum, vs placebo): 0.70 | First events reduced by ([2]; vs placebo): 25% | Second events reduced by ([2]; vs placebo): 28% | Third or more events reduced by ([2]; vs placebo): 50% | Total events for the primary composite efficacy outcome: relative risk reduction ([2]; vs placebo): 32% | Discontinuations with the 8 g per day loading dose ([3]; VASCEPA-COVID-19): no discontinuations | Tolerability ([3]; VASCEPA-COVID-19, 14 days): well tolerated | Serious AEs or deaths ([3]; VASCEPA-COVID-19 trial population): No serious AEs or deaths occurred | Mild adverse events: Gastrointestinal disorders, % [3, 4]: 8% | Moderate adverse events: Gastrointestinal disorders, % [3, 4]: 2% | Moderate adverse events: Respiratory disorders, % [3, 5]: 2% | Total adverse events, % [3, 5]: 12%
